Tested on: WT Mtb Erdman strain
Experiment: Microplate Alamar Blue Assay (MABA), Mtb growth inhibition
Assay type: cell-based, Mycobacterium tuberculosis
Conditions: Mycobacterium tuberculosis, ERDMAN, 168 h, Middlebrook 7H9 media, 7 days at 37° C. in 5% CO2

## CCc1nc(NCCCc2ccc(-c3ncccn3)cc2)c2cc(C)sc2n1 [Example 372, 2-ethyl-6-methyl-N-(3-(4-(pyrimidin-2-yl)phenyl)propyl) thieno[2,3-d]pyrimidin-4-amine]
  IC50: 250 nM

## CCc1nc(NCCCc2ccc(-c3cccnn3)cc2)c2cc(C)sc2n1 [Example 373, 2-ethyl-6-methyl-N-(3-(4-(pyridazin-3-yl)phenyl)propyl) thieno[2,3-d] pyrimidin-4-amine]
  IC50: 1000 nM

## CCc1nc(NCCCc2ccc(-c3ccc(OC(F)(F)F)cc3F)cc2)c2cc(C)sc2n1 [Example 374, 2-ethyl-N-(3-(2′-fluoro-4′-(tri-fluoromethoxy)-[1,1′-biphenyl]-4-yl)propyl)-6-methylthieno[2,3-d]pyrimidin-4-amine]
  IC50: 30 nM

## CCc1nc(NCCCc2ccc(-c3ccnnc3)cc2)c2cc(C)sc2n1 [Example 375, 2-ethyl-6-methyl-N-(3-(4-(pyridazin-4-yl)phenyl)propyl) thieno[2,3-d]pyrimidin-4-amine]
  IC50: 860 nM

## CCc1nc(NCCCc2ccc(-c3ccc(OC(F)(F)F)cn3)cc2)c2cc(C)sc2n1 [Example 376, 2-ethyl-6-methyl-N-(3-(4-(5-(trifluoro-methoxy)pyridin-2-yl)phenyl)propyl)thieno [2,3-d]pyrimidin-4-amine]
  IC50: 55 nM

## Cc1cc2c(NCCCc3ccc(-c4cnc(F)cn4)cc3)nc(-c3ccoc3)nc2s1 [Example 377, N-(3-[4-(5-fluoropyrazin-2-yl)phenyl]propyl)-2-(furan-3-yl)-6-methylthieno [2,3-d]pyrimidin-4-amine]
  IC50: 8 nM

## Cc1cc2c(NCCCc3ccc(-c4cnc(C5CC5)cn4)cc3)nc(-c3ccoc3)nc2s1 [Example 378, N-(3-[4-(5-cyclopropyl-pyrazin-2-yl)phenyl]propyl)-2-(furan-3-yl)-6-methylthieno[2,3-d]pyrimidin-4-amine]
  IC50: 63 nM

## Cc1cc2c(NCCCc3ccc(-c4cnc(C(F)(F)F)cn4)cc3)nc(-c3ccoc3)nc2s1 [Example 379, 2-(furan-3-yl)-6-methyl-N-(3-(4-[5-(trifluoromethyl)pyrazin-2-yl]phenyl)propyl) thieno[2,3-d]pyrimidin-4-amine]
  IC50: 12 nM

## COc1cnc(-c2ccc(CCCNc3nc(-c4ccoc4)nc4sc(C)cc34)cc2)cn1 [Example 380, 2-(furan-3-yl)-N-(3-[4-(5-methoxypyrazin-2-yl)phenyl]propyl)-6-methylthieno[2,3-d]pyrimidin-4-amine]
  IC50: 17 nM

## Cc1cc2c(NCCCc3ccc(-c4cnc(N(C)C)cn4)cc3)nc(-c3ccoc3)nc2s1 [Example 381, 5-[4-(3-([2-(furan-3-yl)-6-methylthieno[2,3-d]pyrimidin-4-yl]amino)propyl)phenyl]-N,N-dimethyl-pyrazin-2-amine]
  IC50: 39 nM

## Cc1cc2c(NCCCc3ccc(-c4ccc(F)cn4)cc3)nc(-c3ccoc3)nc2s1 [Example 382, N-(3-[4-(5-fluoropyridin-2-yl)phenyl]propyl)-2-(furan-3-yl)-6-methylthieno[2,3-d]pyrimidin-4-amine]
  IC50: 8 nM

## Cc1cc2c(NCCCc3ccc(-c4cncc(C(F)(F)F)n4)cc3)nc(-c3ccoc3)nc2s1 [Example 383, 2-(furan-3-yl)-6-methyl-N-(3-(4-[6-(trifluoromethyl)pyrazin-2-yl]phenyl)propyl) thieno[2,3-d]pyrimidin-4-amine]
  IC50: 230 nM

## Cc1cc2c(NCCCc3ccc(-c4ccc(F)nc4)cc3)nc(-c3ccoc3)nc2s1 [Example 384, N-(3-[4-(6-fluoropyridin-3-yl)phenyl]propyl)-2-(furan-3-yl)-6-methylthieno[2,3-d]pyrimidin-4-amine]
  IC50: 6 nM

## Cc1cc2c(NCCCc3ccc(-c4ccnc(C(F)(F)F)n4)cc3)nc(-c3ccoc3)nc2s1 [Example 385, 2-(furan-3-yl)-6-methyl-N-(3-(4-[2-(trifluoromethyl)pyrimidin-4-yl]phenyl)propyl) thieno[2,3-d]pyrimidin-4-amine]
  IC50: 200 nM

## Cc1cc2c(NCCCc3ccc(-c4cnc(C(F)(F)F)nc4)cc3)nc(-c3ccoc3)nc2s1 [Example 386]
  IC50: 220 nM

## Cc1cc2c(NCCCc3ccc(-c4ccc(C(F)(F)F)cn4)cc3)nc(-c3ccoc3)nc2s1 [Example 387, 2-(furan-3-yl)-6-methyl-N-(3-(4-[5-(trifluoromethyl)pyridin-2-yl]phenyl)propyl) thieno[2,3-d]pyrimidin-4-amine]
  IC50: 5 nM

## Cc1cc2c(NCCCc3ccc(-c4ccc(OC(F)(F)F)cn4)cc3)nc(-c3ccoc3)nc2s1 [Example 388, 2-(furan-3-yl)-6-methyl-N-(3-(4-[5-(trifluoro-methoxy)pyridin-2-yl]phenyl)propyl)thieno[2,3-d]pyrimidin-4-amine]
  IC50: 7 nM

## Cc1cc2c(NCCCc3ccc(-c4ccc(C(F)(F)F)nn4)cc3)nc(-c3ccoc3)nc2s1 [Example 389, 2-(furan-3-yl)-6-methyl-N-(3-(4-[6-(trifluoro-methyl)pyridazin-3-yl]phenyl)propyl)thieno[2,3-d]pyrimidin-4-amine]
  IC50: 32 nM

## Cc1cc2c(NCCCc3ccc(-c4ccnc(O)c4)cc3)nc(-c3ccoc3)nc2s1 [Example 390, 4-[4-(3-([2-(furan-3-yl)-6-methylthieno[2,3-d]pyrimidin-4-yl]amino)propyl)phenyl]pyridin-2-ol]
  IC50: 9300 nM

## Cc1cc2c(NCCCc3ccc(-c4cnccn4)cc3)nc(-c3ccoc3)nc2s1 [Example 391, 2-(furan-3-yl)-6-methyl-N-(3-[4-(pyrazin-2-yl)phenyl]propyl) thieno[2,3-d]pyrimidin-4-amine]
  IC50: 62 nM

## Cc1cc2c(NCCCc3ccc(-c4cnc(OC(C)C)cn4)cc3)nc(-c3ccoc3)nc2s1 [Example 392, 2-(furan-3-yl)-6-methyl-N-(3-(4-[5-(propan-2-yloxy)pyrazin-2-yl]phenyl)propyl)thieno[2,3-d]pyrimidin-4-amine]
  IC50: 44 nM

## Cc1cnc(-c2ccc(CCCNc3nc(-c4ccoc4)nc4sc(C)cc34)cc2)cn1 [Example 393, 2-(furan-3-yl)-6-methyl-N-(3-[4-(5-methyl-pyrazin-2-yl)phenyl]propyl) thieno[2,3-d] pyrimidin-4-amine]
  IC50: 16 nM

## Cc1cc2c(NCCCc3ccc(-c4ncc(C(F)(F)F)cn4)cc3)nc(-c3ccoc3)nc2s1 [Example 394, 2-(furan-3-yl)-6-methyl-N-(3-(4-[5-(trifluoromethyl)pyrimidin-2-yl]phenyl)propyl) thieno[2,3-d] pyrimidin-4-amine]
  IC50: < 4 nM

## Cc1cc2c(NCCCc3ccc(-c4cnc(Cl)cn4)cc3)nc(-c3ccoc3)nc2s1 [Example 395, N-(3-[4-(5-chloropyrazin-2-yl)phenyl]propyl)-2-(furan-3-yl)-6-methylthieno[2,3-d]pyrimidin-4-amine]
  IC50: 5 nM

## Cc1cc2c(NCCCc3ccc(-c4cnc(C#N)cn4)cc3)nc(-c3ccoc3)nc2s1 [Example 396, 5-[4-(3-([2-(furan-3-yl)-6-methylthieno[2,3-d]pyrimidin-4-yl]amino)propyl)phenyl]pyrazine-2-carbonitrile]
  IC50: < 5 nM

## Cc1cc2c(NCCCc3ccc(-c4cnc5[nH]ccc5n4)cc3)nc(-c3ccoc3)nc2s1 [Example 397, 2-(furan-3-yl)-6-methyl-N-[3-(4-(5H-pyrrolo[2,3-b]pyrazin-2-yl)phenyl)propyl] thieno[2,3-d] pyrimidin-4-amine]
  IC50: 5000 nM

## Cc1cc2c(NCCCc3ccc(-c4ccc(S(C)(=O)=O)cn4)cc3)nc(-c3ccoc3)nc2s1 [Example 398, 2-(furan-3-yl)-N-(3-[4-(5-methanesulfonyl-pyridin-2-yl)phenyl]propyl)-6-methylthieno [2,3-d]pyrimidin-4-amine]
  IC50: > 460 nM

## CSc1cnc(-c2ccc(CCCNc3nc(-c4ccoc4)nc4sc(C)cc34)cc2)cn1 [Example 399, 2-(furan-3-yl)-6-methyl-N-(3-(4-[5-(methylsulfanyl)pyrazin-2-yl]phenyl)propyl) thieno[2,3-d] pyrimidin-4-amine]
  IC50: > 270 nM

## Cc1cc2c(NCCCc3ccc(-c4ccc(N(C)C)nn4)cc3)nc(-c3ccoc3)nc2s1 [Example 400, 6-[4-(3-([2-(furan-3-yl)-6-methylthieno [2,3-d]pyrimidin-4-yl]amino)propyl)phenyl]-N,N-dimethylpyridazin-3-amine]
  IC50: > 500 nM

## Cc1cc2c(NCCCc3ccc(-c4cnc(C(=O)N(C)C)cn4)cc3)nc(-c3ccoc3)nc2s1 [Example 401, 5-[4-(3-([2-(furan-3-yl)-6-methylthieno[2,3-d]pyrimidin-4-yl]amino)propyl)phenyl]-N,N-dimethylpyrazine-2-carboxamide]
  IC50: 2200 nM

## Cc1cc2c(NCCCc3ccc(-c4ncc(F)cn4)cc3)nc(-c3ccoc3)nc2s1 [Example 402, N-(3-[4-(5-fluoropyrimidin-2-yl)phenyl]propyl)-2-(furan-3-yl)-6-methylthieno[2,3-d]pyrimidin-4-amine]
  IC50: 8 nM

## Cc1cc2c(NCCCc3ccc(-c4cnc(CO)cn4)cc3)nc(-c3ccoc3)nc2s1 [Example 403, (5-[4-(3-([2-(furan-3-yl)-6-methylthieno[2,3-d]pyrimidin-4-yl]amino)propyl)phenyl]pyrazin-2-yl)methanol]
  IC50: 70 nM

## CCc1nc(NCCCc2ccc(N3CCOCC3)cc2)c2cc(C)sc2n1 [Example 420, 2-ethyl-6-methyl-N-(3-(4-morpholinophenyl)propyl)thieno[2,3-d]pyrimidin-4-amine]
  IC50: 160 nM

## CCc1nc(NCCCc2ccc(N3CCCCC3)cc2)c2cc(C)sc2n1 [Example 421, 2-ethyl-6-methyl-N-(3-(4-(piperidin-1-yl)phenyl)propyl) thieno[2,3-d]pyrimidin-4-amine]
  IC50: 170 nM

## Cc1cc2c(NCCCc3ccc(N4CCOCC4)cc3)nc(C(F)(F)F)nc2s1 [Example 422, 6-methyl-N-(3-(4-morpholinophenyl)propyl)-2-(trifluoromethyl) thieno[2,3-d]pyrimidin-4-amine]
  IC50: 2100 nM

## CSc1nc(NCCCc2ccc(-c3cnc(F)cn3)cc2)c2nc(C)sc2n1 [Example 424, N-(3-[4-(5-fluoropyrazin-2-yl)phenyl]propyl)-2-methyl-5-(methylsulfanyl)-[1,3]thiazolo[5,4-d]pyrimidin-7-amine]
  IC50: 41 nM

— patent publication US20240279236A1, “COMPOUNDS AND METHODS OF TREATING TUBERCULOSIS” (Fimbrion Therapeutics, Inc., priority 2021, published 2024)
